Results on five compounds are retold here after DBAASP.

In brackets after ≈: the same amount, converted by molar mass. A value given as a limit tells only on which side of the number the result lay.

Some test systems named below: Escherichia coli K-12; Leuconostoc lactis; Listeria innocua.
Assay in all cases: ≥ marks a high value that may be exact or a test limit, other limits are often not marked, values filed in µg/mL are converted to µM
For assay [1], the system named is Staphylococcus aureus USA 300.
For assay [2], the system named is Clavibacter michiganensis subsp. michiganensis DSM 46294.
The test system of assay [3] is Pseudomonas syringae pv. syringae DSM 10604.
In assay [4] the test system is Pseudomonas corrugata DSM 7228.
Assay [5] has as its system Pseudomonas syringae pv. tomato DC3000.
The subject of assay [6] is Xanthomonas vesicatoria DSM 50861.
Assay [7] relates to Pectobacterium carotovorum subsp. carotovorum DSM 30168.

What is called MIC is the smallest concentration in the dilution series that meets the test's criterion for growth inhibition. Low values mean inhibition by little substance, high ones a need for much substance. Turning to `CC[C@H](C)[C@H](NC(=O)[C@H](CCCN=C(N)N)NC(=O)[C@H](CCC(N)=O)NC(=O)[C@@H](NC(=O)[C@@H](NC(=O)[C@H](CCCN=C(N)N)NC(=O)[C@H](CCCN=C(N)N)NC(=O)[C@H](Cc1ccccc1)NC(=O)[C@H](CCC(=O)O)NC(=O)CN)[C@@H](C)CC)C(C)C)C(=O)N[C@@H](CCCN=C(N)N)C(=O)N[C@@H](CC(=O)O)C(=O)N[C@@H](Cc1ccccc1)C(=O)N[C@@H](CC(C)C)C(=O)N[C@@H](CCCN=C(N)N)C(=O)N[C@@H](CC(N)=O)C(=O)N[C@@H](CC(C)C)C(=O)N[C@H](C(N)=O)C(C)C` [GEFRRIVQRIRDFLRNLV], the values for the MIC (in the assay with Escherichia coli K-12; in assay [1]) were no less than 60 µM and 30 µM (≈ 68.6 µg/mL), respectively.

As to `CC[C@H](C)[C@H](NC(=O)[C@H](CO)NC(=O)[C@H](CO)NC(=O)[C@@H](NC(=O)[C@H](CC(C)C)NC(=O)CN)C(C)C)C(=O)NCC(=O)N[C@@H](CCCCN)C(=O)N[C@H](C(=O)N[C@@H](CC(C)C)C(=O)NCC(=O)NCC(=O)N[C@@H](CC(C)C)C(=O)N[C@@H](CC(C)C)C(=O)N[C@@H](C)C(=O)N[C@@H](CC(=O)O)C(=O)N[C@H](C(=O)N[C@H](C(=O)N[C@@H](CCCCN)C(=O)N[C@@H](CO)C(=O)N[C@@H](CCCCN)C(=O)NCC(=O)N[C@@H](CCC(N)=O)C(=O)N1CCC[C@H]1C(=O)N[C@@H](C)C(=O)O)C(C)C)C(C)C)C(C)C` [GLVSSIGKVLGGLLADVVKSKGQPA], the MIC against Leuconostoc lactis was 10.4 µM (≈ 25 µg/mL); with Listeria innocua, no less than 41.8 µM.

In the case of `CC[C@H](C)[C@H](NC(=O)[C@H](C)NC(=O)[C@H](CCCCN)NC(=O)[C@H](C)NC(=O)[C@@H](NC(=O)[C@H](CC(C)C)NC(=O)[C@H](CCCCN)NC(=O)[C@H](CC(C)C)NC(=O)[C@@H](NC(=O)[C@H](CCCCN)NC(=O)[C@@H](NC(=O)[C@H](C)NC(=O)[C@H](CCCCN)NC(=O)[C@H](CCCN=C(N)N)NC(=O)[C@H](CCCN=C(N)N)NC(=O)[C@@H](N)CCCCN)[C@@H](C)CC)[C@@H](C)CC)[C@@H](C)CC)C(=O)N[C@@H](CCCN=C(N)N)C(=O)N[C@@H](CCCCN)C(=O)N[C@@H](CCCCN)C(=O)N[C@@H](CCCN=C(N)N)C(N)=O` [KRRKAIKILKLIAKAIRKKR], the MIC in assay [2] worked out at 0.103 µM (≈ 0.25 µg/mL); in assay [3] it was 4.11 µM (≈ 10 µg/mL); in [4] it was 0.103 µM (≈ 0.25 µg/mL); in [5] it was 4.11 µM (≈ 10 µg/mL); in assay [6], 0.0411 µM (≈ 0.0999 µg/mL); in [7] it was 4.11 µM (≈ 10 µg/mL).

As to `CC(C)C[C@H](NC(=O)[C@H](C)NC(=O)[C@H](Cc1ccccc1)NC(=O)[C@H](CCCN=C(N)N)NC(=O)[C@H](Cc1ccccc1)NC(=O)[C@H](C)NC(=O)[C@H](CCCN=C(N)N)NC(=O)[C@H](Cc1ccccc1)NC(=O)[C@H](C)NC(=O)[C@H](CC(C)C)NC(=O)[C@H](CCCCN)NC(=O)[C@H](CCCN=C(N)N)NC(=O)[C@H](CCCN=C(N)N)NC(=O)[C@@H](N)CCCCN)C(=O)N[C@@H](CCCCN)C(=O)N[C@@H](C)C(=O)N[C@H](C(=O)N[C@@H](CC(C)C)C(=O)N[C@@H](CCCCN)C(=O)N[C@@H](CCCCN)C(N)=O)C(C)C` [KRRKLAFRAFRFALKAVLKK], the MIC in assay [2] came to 0.204 µM (≈ 0.5 µg/mL); in assay [3], 0.204 µM (≈ 0.5 µg/mL); in assay [4], 0.102 µM (≈ 0.25 µg/mL); in [5] it was 1.02 µM (≈ 2.5 µg/mL); in assay [6], 0.102 µM (≈ 0.25 µg/mL); in [7] it was 4.08 µM (≈ 10 µg/mL).

As for `CC(C)C[C@H](NC(=O)[C@H](C)NC(=O)[C@H](CC(C)C)NC(=O)[C@H](CCCN=C(N)N)NC(=O)[C@H](CCCN=C(N)N)NC(=O)[C@@H](N)CCCCN)C(=O)N[C@@H](Cc1ccccc1)C(=O)N[C@@H](CCCN=C(N)N)C(=O)N[C@@H](C)C(=O)N[C@@H](Cc1ccccc1)C(=O)N[C@@H](CCCN=C(N)N)C(=O)N[C@@H](CC(C)C)C(=O)N[C@@H](C)C(=O)N[C@@H](CC(C)C)C(=O)N[C@@H](CCCCN)C(=O)N[C@@H](CO)C(=O)N[C@H](C(=O)N[C@@H](CC(C)C)C(=O)N[C@@H](CCCCN)C(=O)N[C@@H](CCCCN)C(N)=O)C(C)C` [KRRLALFRAFRLALKSVLKK], the MIC is 0.0414 µM (≈ 0.0999 µg/mL) in assay [2]; 4.14 µM (≈ 10 µg/mL) in [3]; 0.103 µM (≈ 0.25 µg/mL) in assay [4]; 0.414 µM (≈ 1 µg/mL) in assay [5]; 0.0414 µM (≈ 0.0999 µg/mL) in assay [6]; 4.14 µM (≈ 10 µg/mL) in assay [7].
